One assay concerns the target T1, LIF/LIFR complex (Homo sapiens, UniProt P42702).
T1 construct: purchased Sino Biological (LIFR); R&D Systems (LIF)
T1 sequence (P42702 45-833 limits assumed): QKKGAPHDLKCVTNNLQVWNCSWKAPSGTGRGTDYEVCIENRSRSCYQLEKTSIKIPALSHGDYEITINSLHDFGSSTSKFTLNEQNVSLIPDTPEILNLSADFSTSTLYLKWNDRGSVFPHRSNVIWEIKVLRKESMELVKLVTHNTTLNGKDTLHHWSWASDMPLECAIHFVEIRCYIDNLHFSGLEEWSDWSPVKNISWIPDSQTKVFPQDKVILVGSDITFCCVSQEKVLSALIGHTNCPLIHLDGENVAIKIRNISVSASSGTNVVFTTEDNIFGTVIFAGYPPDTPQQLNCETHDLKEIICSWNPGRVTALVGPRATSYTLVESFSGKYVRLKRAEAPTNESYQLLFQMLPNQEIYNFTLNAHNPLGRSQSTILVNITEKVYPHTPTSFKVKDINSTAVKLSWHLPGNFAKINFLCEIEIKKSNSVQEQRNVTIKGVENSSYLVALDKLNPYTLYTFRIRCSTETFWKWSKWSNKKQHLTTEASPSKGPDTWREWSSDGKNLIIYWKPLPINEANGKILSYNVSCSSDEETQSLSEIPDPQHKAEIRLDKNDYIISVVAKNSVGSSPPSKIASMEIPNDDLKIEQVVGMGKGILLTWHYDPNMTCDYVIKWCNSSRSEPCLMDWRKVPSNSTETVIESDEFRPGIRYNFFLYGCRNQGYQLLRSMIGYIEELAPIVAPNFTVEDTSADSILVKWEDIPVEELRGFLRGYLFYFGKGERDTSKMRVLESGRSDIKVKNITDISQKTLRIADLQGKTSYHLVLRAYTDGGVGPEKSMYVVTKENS
The assay is described as follows: Alpha Screen inhibition of LIFR/LIF binding (cell-free). The settings on record: for IC50: cell-free, LIFR 4.5 nM, biotinylated LIF 9 nM, read-out: LIFR IC50 AlphaScreen (inhibition of LIFR/LIF binding). The procedure: Recombinant human LIFR (His Tag) and biotinylated recombinant human LIF were purchased from Sino Biologicals (Sino Biological Europe GmbH, Dusseldorf, Germany) and R&D Systems (Abingdon, UK), respectively, and both were reconstituted as required by the manufacturer. […] The assay was carried out in white, low-volume, 384-well AlphaPlates (PerkinElmer, Waltham, MA, USA) using a final volume of 25 µL and an assay buffer containing 25 mM Hepes (pH 7.4), 100 mM NaCl, and 0.005% Kathon. The concentration of DMSO in each well was maintained at 5%. […] Then, LIF was added (biotinylated, final concentration 9 nM), and the samples were incubated for 15 min prior to adding His-Tag acceptor beads (final concentration 20 ng/µL) for 30 min. Then, streptavidin donor beads were added (final concentration 20 ng/µL), and the plate was incubated in the dark for 2 h and then read in an EnSpire Alpha multimode plate reader (PerkinElmer, Waltham, MA, USA).

The next assay concerns the target T2, human GPBAR1 (Homo sapiens, UniProt Q8TDU6).
T2 construct: expressed in transfected cells; host or cells: HEK-293T
T2 sequence (Q8TDU6 1-330): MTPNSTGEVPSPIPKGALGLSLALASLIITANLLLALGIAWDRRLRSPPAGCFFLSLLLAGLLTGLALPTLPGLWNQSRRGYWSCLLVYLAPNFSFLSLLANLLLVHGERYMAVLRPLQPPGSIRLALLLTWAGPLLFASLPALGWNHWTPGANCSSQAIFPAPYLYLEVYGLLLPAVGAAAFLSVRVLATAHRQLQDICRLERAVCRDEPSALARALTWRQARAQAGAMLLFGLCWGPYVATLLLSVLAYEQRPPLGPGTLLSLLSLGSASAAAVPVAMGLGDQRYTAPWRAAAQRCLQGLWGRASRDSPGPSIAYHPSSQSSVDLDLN
In words: GPBAR1 transactivation (CRE-luciferase) in HEK-293T cells. Format: cell-based.

This is an account of results in publication PMC10043345, “Discovery of BAR502, as potent steroidal antagonist of leukemia inhibitory factor receptor for the treatment of pancreatic adenocarcinoma” (Frontiers in Oncology, 2023).

Values joined by “and” are separate entries in the source; they are usually repeats but may differ in a detail not shown here. Equal entries are not always repeated.

For `CC[C@H]1[C@@H](O)C2C3CC[C@H]([C@H](C)CCO)[C@@]3(C)CCC2[C@@]2(C)CC[C@@H](O)C[C@@H]12` (some centres unmarked) [BAR502], the IC50 on LIF/LIFR complex is 3.6 µM and 3.59 µM. The EC50 on human GPBAR1 (transactivation, agonism, read-out: GPBAR1 EC50 Transact) was 0.4 ± 0.1 µM.

As for `OCc1ccc(-c2ccc(OCc3cc(-c4c(Cl)cccc4Cl)no3)cc2)cc1` [PDL103, (4’-((3-(2,6-dichlorophenyl)isoxazol-5-yl)methoxy)-[1,1’-biphenyl]-4-yl)methanol], at LIF/LIFR complex (cell-free Alpha Screen), the “effect on LIF/LIFR complex formation (LIFR antagonism), in words” value is “inactive”. For the same compound, the IC50 at LIF/LIFR complex was determined as 97.5 ± 29.3 µM; on human GPBAR1 (Hek293T, transactivation induced by TLCA (10 μM), read-out: Hek293T GPBAR1 Antagonism IC50), 19 µM.

For orientation: EC50 means the concentration giving half of the maximal effect.
